Source: patent US20140274713A1, “IONIC LIQUIDS AND USES THEREOF” (OMS Investments, Inc., priority 2013, published 2014)

Assay: Dissolution in Dowanol DPM under high shear
Type: physicochemical
Conditions: Dowanol DPM (dipropylene glycol methyl ether)

COC(=O)c1ccccc1S(=O)(=O)NC(=O)Nc1nc(C)nc(OC)n1 [MSM, methsulfuron methyl]
Dissolution in Dowanol DPM: did not dissolve
